In patent publication US10045952B2, “Anti-Viral Compound and Composition” (Forest Herbs Research Limited, priority 2013, dated 2018):
Values after ≈ are worked out from the molar mass of the structure shown. “Also recorded” adds a separate entry of the source.

Assays:
cells = settings: literature statement; cited from earlier work
HSV-1 [1] = experiment: Crystal violet assay, anti-viral activity against HSV-1 in Vero cells; type: cell-based, Herpes simplex type 1 virus
Experimental: A wild-type HSV-1 obtained from ESR, Upper Hutt, was cultured in Vero (African Green Monkey kidney) tissue culture cells. HSV-1 virus was added to confluent Vero cell monolayers and allowed to infect until >70% cytopathic effect was observed. The infected cultures were then frozen and thawed three times and centrifuged at 3000 rpm for 15 minutes. The supernatant was stored at −80° C. until use.
(§1) The crystal violet assay depends on the ability of adherent cell lines such as Vero to stick to the bottom of tissue culture plates. Damaged or dead cells lose their ability to adhere and are removed during a washing process. Viable cells remaining are stained with crystal violet, which is then released from the cells and measured in a spectrophotometer.
(§2) Vero cells were seeded at 3×10^5 cells/ml overnight at 37° C. in 96-well tissue culture plates. When cells had reached confluency, 50 μl of the growth media was removed and replaced with 25 μl of virus and 25 μl of test product. Controls were the same as those used in the xCelligence assay. The assay was terminated after 96 hours which is the length of time taken to see CPE in the control wells.

HSV-1 [2] = experiment: Crystal violet assay, anti-viral activity against HSV-1 in HaCaT cells; type: cell-based, Herpes simplex type 1 virus
Experimental: The crystal violet assay depends on the ability of adherent cell lines such as Vero to stick to the bottom of tissue culture plates. Damaged or dead cells lose their ability to adhere and are removed during a washing process. Viable cells remaining are stained with crystal violet, which is then released from the cells and measured in a spectrophotometer. Vero cells were seeded at 3×10^5 cells/ml overnight at 37° C. in 96-well tissue culture plates. When cells had reached confluency, 50 μl of the growth media was removed and replaced with 25 μl of virus and 25 μl of test product. Controls were the same as those used in the xCelligence assay. The assay was terminated after 96 hours which is the length of time taken to see CPE in the control wells. In the first test (results shown in FIGS. 2A and B), the HSV-1 anti-viral activity of pure polygodial was assessed in comparison to Acyclovir in both Vero cells (FIG. 2A) and HaCaT cells (FIG. 2B).

[3] = test system: Vero cells and HaCaT cells; experiment: Cytotoxicity to the cells used in the in vitro anti-viral testing (crystal violet assay); type: cell-based, African Green Monkey; settings: at the concentrations tested in the anti-viral assay
Experimental: as §1, §2
In this test, it was confirmed that polygodial is not cytotoxic at the concentrations tested because where strong anti-viral activity is present, the cells are alive and uninfected by the virus.

[4] = 4 μl/ml Acyclovir, virus only control infection rate about 75%

CC1(C)CCC[C@@]2(C)[C@H]1CC=C(C=O)[C@]2(O)C=O [warburganal]
cytotoxicity (cells): particularly cytotoxic

CC1(C)CCC[C@]2(C)[C@@H](C=O)C(C=O)=CC[C@@H]12 [polygodial]
MIC (HSV-1 [1]; Human alphaherpesvirus 1, calculated, HSV-1, cell line not distinguished (Vero and HaCaT)): 600 to 1200 µg/mL (≈ 2.56 to 5.12 mM)
concentration at which anti-viral effect was comparative to 4 μl/ml Acyclovir (HSV-1 [1]; Vero cells): 0.15 mg/mL
concentration at which anti-viral effect was comparative to 4 μl/ml Acyclovir (HSV-1 [2]; HaCaT cells): 0.3125 mg/mL
cytotoxicity [3]: not cytotoxic; also recorded: low cytotoxicity

Nc1nc2c(ncn2COCCO)c(=O)[nH]1 [Acyclovir, reference compound]
uninfected cells, Acyclovir control, first test (FIGS. 2A and B) (HSV-1 [1]; 4 μl/ml Acyclovir, Vero and HaCaT not distinguished, virus only control infection rate about 80%): 80%
uninfected Vero cells, Acyclovir control, second test (FIG. 3A) (HSV-1 [1]; [4]): 60%
uninfected HaCaT cells, Acyclovir control, second test (FIG. 3B) (HSV-1 [2]; [4]): 75%
